Laboratory results taken from patent EP1268431B1 (Wyeth, priority 2000, dated 2001).
Where “and” joins values, the source holds several entries; their conditions need not be identical. Identical values can stand only once. Like-named read-outs stand apart in the source and are kept apart here.

Key:
[1] = target: T1, c-Src (Homo sapiens, UniProt P12931); assay: c-Src Kinase Assay (ELISA format); format: biochemical
T1 construct: purchased Upstate Biotechnologies
Method in brief: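 Partially purified Src preincubated with compound and biotinylated peptide 10 min at 30 °C in Tris-HCl pH 7.5 with MgCl2, EGTA, vanadate; ATP-started reaction ran 1 h at 30 °C, EDTA-stopped. Phosphopeptide captured on streptavidin, detected by HRP anti-phosphotyrosine; % inhibition = (1 − Abs/Abs(max)) × 100.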

[2] = system: Rat2 fibroblasts stably transformed with a plasmid containing a CMV promotor controlled v-Src/Hu c-Src fusion gene; assay: Anchorage Independent Src-transformed Fibroblast Proliferation Assay
[3] = read-out: anch-indep src-tx fib IC50, suspension growth, MTS on Day 5
[4] = Rattus norvegicus, Rat2, 120 h, read-out: anch-indep src-tx fib IC50, suspension growth, MTS on Day 5

Row | Compound | IC50 [1] | inhibition at 0.01 µM ([1]; at 10 nM) [%] | inhibition at 10 µM ([1]; at 10 µM) [%] | IC50 [2, 3] [µM] | IC50 [2, 4] [µM]
1 | 4-(2.4-Dichloro-5-methoxyanilino)-7-(3-formyl)-3-guinolinecarbonitrile [Example 112] | 0.036 µM | – | – | 7.3 | –
2 | COc1cc(Nc2c(C#N)cnc3cc(-c4ccc(CN(CCO)CCO)o4)ccc23)c(Cl)cc1Cl [Example 76, 7-(5-{[Bis(2-hydroxyethyl)amino]methyl}-2-furyl)-4-(2,4-dichloro-5-methoxyanilino)-3-quinolinecarbonitrile] | 0.022 µM | – | – | – | 1.1
3 | COc1cc(Nc2c(C#N)cnc3cc(-c4ccccc4CN4CCOCC4)ccc23)c(Cl)cc1Cl [Example 115, 4-(2,4-Dichloro-5-methoxyanilino)-7-[2-(4-morpholinylmethyl)phenyl]-3-quinolinecarbonitrile] | 5 µM | – | – | – | > 10
4 | COc1ccc(/C=C/c2ccc3c(Nc4cc(OC)c(Cl)cc4Cl)c(C#N)cnc3c2)cc1 [Example 54, 4-(2,4-Dichloro-5-methoxyanilino)-7-[(E)-2-(4-methoxyphenyl)ethenyl]-3-quinolinecarbonitrile] | 0.062 µM | – | – | – | > 10
5 | COc1cc(Nc2c(C#N)cnc3cc(-n4cccc4CN(C)C)ccc23)c(Cl)cc1Cl [Example 93] | 0.61 µM and 0.68 µM | – | – | > 10 | –
6 | COc1cc(Nc2c(C#N)cnc3cc(-c4ccc(CN5CCOCC5)n4C)ccc23)c(Cl)cc1Cl [Example 70, 4-(2,4-Dichloro-5-methoxyanilino)-7-[1-methyl-5-(4-morpholinylmethyl)-1H-pyrrol-2-yl]-3-quinolinecarbonitrile] | 0.025 µM | – | – | – | 6
7 | COc1cc(Nc2c(C#N)cnc3cc(-c4cccn4C(=O)OC(C)(C)C)ccc23)c(Cl)cc1Cl [Example 164, tert-butyl 2-[3-cyano-4-(2,4-dichloro-5-methoxyanilino)-7-quinolinyl]-1H-pyrrole-1-carboxylate] | > 1 µM | – | – | – | > 10
8 | COc1cc(Nc2c(C#N)cnc3cc(-c4ccc(-c5ccccc5)cc4)ccc23)c(Cl)cc1Cl [Example 165, 7-[1,1'-biphenyl]-4-yl-4-(2,4-dichloro-5-methoxyanilino)-3-quinolinecarbonitrile] | – | 28 | – | – | > 10
9 | COc1cc(Nc2c(C#N)cnc3cc(-c4ccc(CN5CCS(=O)(=O)CC5)cc4)ccc23)c(Cl)cc1Cl [Example 150, 4-[(2,4-dichloro-5-methoxyphenyl)amino]-7-{4-[(1,1-dioxido-4-thiomorpholinyl)methyl]phenyl}-3-quinolinecarbonitrile] | 0.013 µM and 0.0066 µM | – | – | 0.52 | 0.5
10 | COc1cc(Nc2c(C#N)cnc3cc(-c4cccc5ccccc45)ccc23)c(Cl)cc1Cl [Example 116, 4-(2,4-Dichloro-5-methoxyanilino)-7-(1-naphthyl)-3-quinolinecarbonitrile] | – | – | 25 | – | > 10
11 | COc1cc(Nc2c(C#N)cnc3cc(/C=C/c4ccccc4)ccc23)c(Cl)cc1Cl [Example 139, 4-(2,4-dichloro-5-methoxyanilino)-7-[(E)-2-phenylethenyl]-3-quinolinecarbonitrile] | 0.3 µM and 0.34 µM | – | – | – | > 10
12 | 4-(2,4-Dichloro-5-methoxyanilino)-7-{5-[(4-hydroxy-1-piperidinyl)methyl]-2-thienyl}-3-quinolinecarbonitrile [Example 89] | 0.00052 µM and 0.00084 µM | – | – | 0.09 | –
13 | COc1cc(Nc2c(C#N)cnc3cc(-c4ccc(Oc5ccc(CN6CCOCC6)cc5)nc4)ccc23)c(Cl)cc1Cl [Example 193, 4-(2,4-dichloro-5-methoxyanilino)-7-{6-[4-(4-morpholinylmethyl)phenoxy]-3-pyridinyl)-3-quinolinecarbonitrile] | 0.034 µM | – | – | – | > 10
14 | COc1cc(Nc2c(C#N)cnc3cc(-c4csc(CN5CCOCC5)c4)ccc23)c(Cl)cc1Cl [Example 24, 4-(2,4-Dichloro-5-methoxyanilino)-7-[5-(4-morpholinylmethyl)-3-thienyl]-3-quinolinecarbonitrile] | 0.0021 µM and 0.0037 µM | – | – | 0.18 | –
15 | COc1cc(Nc2c(C#N)cnc3cc(-c4ccccc4C=O)ccc23)c(Cl)cc1Cl [Example 114, 4-(2,4-Dichloro-5-methoxyanilino)-7-(2-formylphenyl)-3-quinolinecarbonitrile] | 2.2 µM | – | – | – | > 10
16 | COc1cc(Nc2c(C#N)cnc3cc(-c4ccc(CNCCc5ccccn5)o4)ccc23)c(Cl)cc1Cl [Example 74] | 0.04 µM | – | – | 1.4 | –

More lines, in order of falling IC50 [1], values ahead:

Row | IC50 [1] | inhibition at 0.01 µM ([1]; at 10 nM) [%] | inhibition at 10 µM ([1]; at 10 µM) [%] | Compound | IC50 [2, 3] [µM] | IC50 [2, 4] [µM]
17 | 0.018 µM | – | – | COc1cc(Nc2c(C#N)cnc3cc(-c4ccc(CCl)cc4)ccc23)c(Cl)cc1Cl [Example 102, 7-[4-(Chloromethyl)phenyl]-4-(2,4-dichloro-5-methoxyanilino)-3-quinolinecarbonitrile] | – | 7.5
18 | 0.015 µM | – | – | COc1cc(Nc2c(C#N)cnc3cc(-c4ccc(CO)cc4)ccc23)c(Cl)cc1Cl [Example 101, 4-(2,4-Dichloro-5-methoxyanilino)-7-[4-(hydroxymethyl)phenyl]-3-quinolinecarbonitrile] | – | > 10
19 | 0.011 µM | – | – | COc1cc(Nc2c(C#N)cnc3cc(-c4ccc(CNCCS(=O)(=O)c5ccccc5)o4)ccc23)c(Cl)cc1Cl [Example 58, 4-(2,4-Dichloro-5-methoxyanilino)-7-[5-({[2-(phenylsulfonyl)ethyl]amino}methyl)-2-furyl]-3-quinolinecarbonitrile] | – | 5.1
20 | 0.01 µM | – | – | COc1cc(Nc2c(C#N)cnc3cc(-c4ccc(-c5nnn[nH]5)cc4)ccc23)c(Cl)cc1Cl [Example 105] | 5.9 | > 10
21 | 0.0086 µM | – | – | CCOC(=O)C1CCCN(Cc2ccc(-c3ccc4c(Nc5cc(OC)c(Cl)cc5Cl)c(C#N)cnc4c3)cc2)C1 (stereo not drawn) [Example 148, ethyl 1-(4-{3-cyano-4-[(2,4-dichloro-5-methoxyphenyl)amino]-7-quinolinyl}benzyl)-3-piperidinecarboxylate] | – | 2.1
22 | 0.007 µM | – | – | COc1cc(Nc2c(C#N)cnc3cc(-c4ccc(CN5CCOCC5)c(CN5CCOCC5)c4)ccc23)c(Cl)cc1C [Example 133, 7-[3,4-bis(4-morpholinylmethyl)phenyl]-4-(2-chloro-5-methoxy-4-methylanilino)-3-quinolinecarbonitrile] | – | 0.73
23 | 0.0068 µM | – | – | COC(=O)C1CCN(Cc2ccc(-c3ccc4c(Nc5cc(OC)c(Cl)cc5Cl)c(C#N)cnc4c3)cc2)CC1 [Example 231, methyl 1-{4-[3-cyano-4-(2,4-dichloro-5-methoxy-anilino)-7-quinolinyl]benzyl}-4-piperidinecarboxylate] | – | 0.39
24 | 0.0041 µM | – | – | COc1cc(Nc2c(C#N)cnc3cc(-c4ccc(CN5CCOCC5)cc4)ccc23)c(Cl)cc1F [Example 235, 4-(2-chloro-4-fluoro-5-methoxyanilino)-7-[4-(4-morpholinylmethyl)phenyl]-3-quinolinecarbonitrile] | – | 0.79
25 | 0.004 µM | – | – | CCOC(=O)CC1CCN(Cc2ccc(-c3ccc4c(Nc5cc(OC)c(Cl)cc5Cl)c(C#N)cnc4c3)cc2)CC1 [Example 144, ethyl (1-{4-[3-cyano-4-(2,4-dichloro-5-methoxyanilino)-7-quinolinyl]benzyl}-4-piperidinyl)acetate] | – | 0.092
26 | 0.003 µM | – | – | COc1cc(Nc2c(C#N)cnc3cc(-c4ccc(CNCCS(C)(=O)=O)cc4)ccc23)c(Cl)cc1Cl [Example 88, 4-(2,4-Dichloro-5-methoxyanilino)-7-[4-({[2-(methylsulfonyl)ethyl]amino}methyl)phenyl]-3-quinolinecarbonitrile] | – | 0.85
27 | 0.003 µM | – | – | COc1ccc(Cl)c(Nc2c(C#N)cnc3cc(-c4ccc(CN5CCOCC5)cc4)ccc23)c1 [Example 236, 4-(2-chloro-5-methoxyanilino)-7-[4-(4-morpholinylmethyl)phenyl]-3-quinolinecarbonitrile] | – | 0.57
28 | 0.0027 µM | – | – | CCN1CCN(CCc2ccc(-c3ccc4c(Nc5cc(OC)c(Cl)cc5Cl)c(C#N)cnc4c3)cc2)CC1 [Example 32, 4-(2,4-Dichloro-5-methoxyanilino)-7-{4-[2-(4-ethyl-1-piperazinyl)ethyl]phenyl}-3-quinolinecarbonitrile] | 1.9 | 2
29 | 0.0017 µM | – | – | COC(=O)C1CCN(Cc2ccc(-c3ccc4c(Nc5cc(OC)c(Cl)cc5Cl)c(C#N)cnc4c3)nc2)CC1 [Example 176, 1-{6-[3-cyano-4-(2,4-dichloro-5-methoxyphenylamino)-quinolin-7-yl]-pyridin-3-ylmethyl}piperidine-4-carboxylic acid methyl ester] | – | 0.09
30 | 0.0017 µM | – | – | COc1cc(Nc2c(C#N)cnc3cc(-c4csc(CN5CCOCC5)c4)ccc23)c(Cl)cc1F [Example 79, 4-(2-chloro-4-fluoro-5-methoxyanilino)-7-[5-(4-morpholinylmethyl)-3-thienyl]-3-quinolinecarbonitrile] | – | 0.13
31 | 0.0013 µM | – | – | COc1cc(Nc2c(C#N)cnc3cc(-c4ccc(CN5CCCCC5)s4)ccc23)c(Cl)cc1Cl [Example 78, 4-(2,4-Dichloro-5-methoxyanilino)-7-[5-(1-piperidinylmethyl)-2-thienyl]-3-quinolinecarbonitrile] | – | 0.14
32 | 0.0011 µM | – | – | COc1cc(Nc2c(C#N)cnc3cc(-c4ccc(CN(C)C)cc4)ccc23)c(Cl)cc1Cl [Example 86, 4-(2,4-Dichloro-5-methoxyanilino)-7-{4-[(dimethylamino)methyl]phenyl}-3-quinolinecarbonitrile] | – | 0.21
33 | 0.00048 µM | – | – | COc1cc(Nc2c(C#N)cnc3cc(-c4cc(CN5CCOCC5)c(CN5CCOCC5)s4)c(OC)cc23)c(Cl)cc1Cl [Example 82, 7-[4,5-Bis(4-morpholinylmethyl)-2-thienyl]-4-(2,4-dichloro-5-methoxyanilino)-6-methoxy-3-quinolinecarbonitrile] | – | 0.05
